Reference: patent US20240025862A1, “SUBSTITUTED N-PHENYLURACILS AND SALTS THEREOF, AND USE THEREOF AS HERBICIDAL ACTIVE SUBSTANCES” (Bayer Aktiengesellschaft, priority 2020, published 2024)

Columns and labels:
Type in all cases: in vivo
[1] = tested on: Triticum aestivum (TRZAS); assay: Post-emergence crop plant compatibility, greenhouse pot test; conditions: vs untreated controls
How it was run: (§1)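 Greenhouse-grown crop plants sprayed post-emergence at the one-leaf stage with WP or EC formulations plus 0.5% additive, at 600 l/ha water. Damage rated visually after about 3 weeks versus untreated controls (0% = like control, 100% = dead); suffixes a/b/c denote different dosages.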

Zea mays (ZEAMX) = assay: as above; conditions: 1.25 g/ha, vs untreated controls
How it was run: as §1

Oryza sativa (ORYSA) = assay: Post-emergence crop plant compatibility, greenhouse pot test (also comparative test C); conditions: vs untreated controls
How it was run: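 Rice and other crops sprayed post-emergence at one-leaf stage (2–3 weeks after sowing) with WP or EC formulations plus 0.5% additive at 600 l/ha water. Visual rating about 3 weeks later versus untreated controls (100% = dead, 0% = like control); suffixes a–c denote different doses.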

[2] = tested on: Matricaria inodora (MATIN); assay: Post-emergence herbicidal action, greenhouse pot test (also comparative test C)
How it was run: (§2)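 Visual rating against untreated controls, about 3 weeks after spraying, from 0% (like control) to 100% (plants dead). Weeds were treated at the one-leaf stage, 2–3 weeks after sowing in sandy loam, with aqueous WP/EC spray containing 0.5% additive at 600 l/ha. Doses were ≤20 g/ha, or ≤5 g/ha for comparative test C.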

[3] = tested on: Alopecurus myosuroides (ALOMY); assay: as above; conditions: 20 g/ha, rated visually after about 3 weeks vs untreated controls, 100% = plants have died
How it was run: as §2

[4] = tested on: Echinochloa crus-galli (ECHCG); assay: as above
How it was run: as §2

Setaria viridis (SETVI) = assay: as above
How it was run: as §2

[5] = tested on: Amaranthus retroflexus (AMARE); assay: Post-emergence herbicidal action, greenhouse pot test; conditions: rated visually after about 3 weeks vs untreated controls, 100% = plants have died
How it was run: (§3)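 Greenhouse-grown weeds in sandy loam were sprayed post-emergence at the one-leaf stage, 2–3 weeks after sowing. Compounds were formulated as WP or EC in water with 0.5% additive at 600 l/ha, at rates of 20 g/ha or less. Visual rating after about 3 weeks used a scale from 0% (like untreated control) to 100% (plants dead).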

Avena fatua (AVEFA) = assay: as above; conditions: 20 g/ha, rated visually after about 3 weeks vs untreated controls, 100% = plants have died
How it was run: as §3

Viola tricolor (VIOTR) = assay: as above
How it was run: as §3

Veronica persica (VERPE) = assay: as above
How it was run: as §3

[6] = tested on: Pharbitis purpurea (PHBPU); assay: as above
How it was run: as §3

[7] = tested on: Polygonum convolvulus (POLCO); assay: as above
How it was run: as §3

[8] = tested on: Abutilon theophrasti (ABUTH); assay: as above; conditions: rated visually after about 3 weeks vs untreated controls, 100% = plants have died
How it was run: as §3

Cn1c(C(F)(F)F)cc(=O)n(-c2cc(Oc3ccccc3OCC(=O)OCCOC(F)(F)F)c(C#N)cc2F)c1=O [I.9-41]
10%: Post-emergence action against TRZAS (crop plant compatibility) ([1]; 5 g/ha) | Post-emergence action against ZEAMX (crop plant compatibility) (Zea mays (ZEAMX))
80%: Post-emergence action at 20 g/ha against ALOMY in % [3] | Post-emergence action against ECHCG in % ([4]; dosage 5 g/ha) | Post-emergence action at 20 g/ha against AVEFA in % (Avena fatua (AVEFA))
90%: Post-emergence action against VIOTR (Viola tricolor (VIOTR); 1.25 g/ha) | Post-emergence action against POLCO in % ([7]; dosage 5 g/ha)
100%: Post-emergence action against MATIN in % ([2]; dosage 1.25 g/ha) | Post-emergence action against MATIN in % ([2]; dosage 5 g/ha) | Post-emergence action against MATIN in % ([2]; dosage 20 g/ha) | Post-emergence action against ECHCG in % ([4]; dosage 20 g/ha) | Post-emergence action against SETVI (Setaria viridis (SETVI); 20 g/ha) | Post-emergence action against SETVI in % (Setaria viridis (SETVI); dosage 1.25 g/ha) | Post-emergence action against SETVI in % (Setaria viridis (SETVI); dosage 5 g/ha) | Post-emergence action at 1.25 g/ha against AMARE in % ([5]; 1.25 g/ha) | Post-emergence action at 5 g/ha against AMARE in % ([5]; 5 g/ha) | Post-emergence action at 20 g/ha against AMARE in % ([5]; 20 g/ha) | Post-emergence action against VIOTR (Viola tricolor (VIOTR); 5 g/ha) | Post-emergence action against VIOTR (Viola tricolor (VIOTR); 20 g/ha) | Post-emergence action against VERPE (Veronica persica (VERPE); 5 g/ha) | Post-emergence action against VERPE (Veronica persica (VERPE); 20 g/ha) | Post-emergence action against PHBPU in % ([6]; dosage 1.25 g/ha) | Post-emergence action against PHBPU in % ([6]; dosage 5 g/ha) | Post-emergence action against PHBPU in % ([6]; dosage 20 g/ha) | Post-emergence action against POLCO in % ([7]; dosage 20 g/ha) | Post-emergence action at 1.25 g/ha against ABUTH in % ([8]; 1.25 g/ha) | Post-emergence action at 5 g/ha against ABUTH in % ([8]; 5 g/ha) | Post-emergence action at 20 g/ha against ABUTH in % ([8]; 20 g/ha)
20%: Post-emergence action against TRZAS (crop plant compatibility) ([1]; 20 g/ha)
0%: Post-emergence action against TRZAS (crop plant compatibility) ([1]; 1.25 g/ha) | Post-emergence action against ORYSA (crop plant compatibility) (Oryza sativa (ORYSA); 1.25 g/ha) | Post-emergence action against ORYSA (crop plant compatibility) (Oryza sativa (ORYSA); 5 g/ha)
